# Test results: ChEMBL document CHEMBL3045998, “QSAR analysis of 2-benzoxazolyl hydrazone derivatives for anticancer activity and its possible target prediction” (Med Chem Res, 2012)
# Key:
# Assay type in all cases: functional, cell-based
# [1] = Cytotoxicity against Homo sapiens (human) Burkitt lymphoma cells assessed as growth inhibition
# [2] = test system: HeLa; assay: Cytotoxicity against Homo sapiens (human) HeLa cells assessed as growth inhibition
# [3] = test system: CCRF-CEM; assay: Cytotoxicity against Homo sapiens (human) CCRF-CEM cells assessed as growth inhibition
compound,measurement,setting,value
C/C(=N\Nc1nc2ccccc2o1)c1nccnc1C,IC50,[1]; read-out: IC50,900 nM
same,IC50,[1]; read-out: pIC50 (converted),891 nM
same,IC50,[2],186 nM
same,IC50,[3],129 nM
C/C(=N\Nc1nc2ccccc2o1)c1cnc(C)cn1,IC50,[1]; read-out: IC50,150 nM
same,IC50,[1]; read-out: pIC50 (converted),151 nM
CC/C(=N\Nc1nc2ccccc2o1)c1ccccn1,IC50,[1]; read-out: IC50,2 nM
same,IC50,[1]; read-out: pIC50 (converted),2 nM
same,IC50,[2],51.3 nM
C/C(=N\Nc1nc2ccccc2o1)c1cccc[n+]1[O-],IC50,[1]; read-out: IC50,27 nM
same,IC50,[1]; read-out: pIC50 (converted),26.9 nM
c1ccc(C(=NNc2nc3ccccc3o2)c2ccccn2)nc1,IC50,[1]; read-out: IC50,12 nM
same,IC50,[1]; read-out: pIC50 (converted),12 nM
c1ccc(/C(=N/Nc2nc3ccccc3o2)C2CC2)nc1,IC50,[1]; read-out: IC50,185 nM
same,IC50,[1]; read-out: pIC50 (converted),186 nM
C/C(=N\Nc1nc2ccccc2o1)c1ccc2ccccc2n1,IC50,[1]; read-out: IC50,5490 nM
same,IC50,[1]; read-out: pIC50 (converted),5500 nM
C(=N\Nc1nc2ccccc2o1)/c1ccccn1,IC50,[1]; read-out: IC50,5 nM
same,IC50,[1]; read-out: pIC50 (converted),5.01 nM
C/C(=N\Nc1nc2ccccc2o1)c1ccncn1,IC50,[1]; read-out: IC50,144 nM
same,IC50,[1]; read-out: pIC50 (converted),145 nM
C/C(=N\N(C)c1nc2ccccc2o1)c1ccccn1,IC50,[1]; read-out: IC50,> 50000 nM
C/C(=N\Nc1nc2ccccc2o1)c1ncccn1,IC50,[1]; read-out: IC50,30 nM
same,IC50,[1]; read-out: pIC50 (converted),30.2 nM
C/C(=N\Nc1nc2ccccc2o1)c1nccc2ccccc12,IC50,[1]; read-out: IC50,200 nM
same,IC50,[1]; read-out: pIC50 (converted),200 nM
CC(C)(C)/C(=N\Nc1nc2ccccc2o1)c1ccccn1,IC50,[1]; read-out: IC50,> 10000 nM
C/C(=N\Nc1nc2ccccc2o1)c1ccc(C)nn1,IC50,[1]; read-out: IC50,6270 nM
same,IC50,[1]; read-out: pIC50 (converted),6310 nM
C/C(=N\Nc1nc2ccccc2o1)c1cccnc1,IC50,[1]; read-out: IC50,> 100000 nM
CCC/C(=N\Nc1nc2ccccc2o1)c1ccccn1,IC50,[1]; read-out: IC50,6 nM
same,IC50,[1]; read-out: pIC50 (converted),6.03 nM
c1ccc(C/C(=N\Nc2nc3ccccc3o2)c2ccccn2)cc1,IC50,[1]; read-out: IC50,> 10000 nM
C/C(=N\Nc1nc2ccccc2o1)c1cc(C)ncn1,IC50,[1]; read-out: IC50,42 nM
same,IC50,[1]; read-out: pIC50 (converted),41.7 nM
CC(C)/C(=N\Nc1nc2ccccc2o1)c1ccccn1,IC50,[1]; read-out: IC50,14 nM
same,IC50,[1]; read-out: pIC50 (converted),14.1 nM
C/C(=N\Nc1nc2ccccc2o1)c1ccccn1,IC50,[1]; read-out: IC50,9 nM
same,IC50,[1]; read-out: pIC50 (converted),8.91 nM
C/C(=N\Nc1nc2ccccc2o1)c1cc2ccccc2cn1,IC50,[1]; read-out: IC50,30 nM
same,IC50,[1]; read-out: pIC50 (converted),30.2 nM
c1ccc(/C(=N\Nc2nc3ccccc3o2)c2ccccn2)cc1,IC50,[1]; read-out: IC50,120 nM
same,IC50,[1]; read-out: pIC50 (converted),120 nM
C/C(=N\Nc1nc2ccccc2o1)c1cccnn1,IC50,[1]; read-out: IC50,1300 nM
same,IC50,[1]; read-out: pIC50 (converted),1290 nM
